# Measurements from patent US20030036082A1, “Screening methods” (priority 2001, published 2003).
# Assays:
# DGKδ = DGKδ protein expression in gastrocnemius skeletal muscle by immunoblotting after phlorizin treatment; type: in vivo; conditions: GK rats, phlorizin 0.8 g/kg body wt per day s.c. for 4 weeks
# Method: (§1) In order to investigate the influence of DGKδ on insulin-stimulated glucose uptake in more detail, DGKδ expression studies and measurements of DGK activity were performed in GK rats, a lean animal model for type 2 diabetes (Goto et al., pp. 301-303 in: Frontiers in Diabetes Research (Shafrir E., Renold, A E, Eds.) London, John Libbey, 1988). Male GK rats (200-250 g) were obtained from the Karolinska Institute, Sweden. Weight-matched male Wistar rats served as controls (B&K Universal, Sollentuna, Sweden). All rats were maintained under a 12-hour light/dark cycle, and had free access to water and standard rodent diet. Four groups of animals were studied: vehicle-treated Wistar rats (n=5), phlorizin-treated Wistar rats (n=6), vehicle-treated GK-rats (n=6) and phlorizin-treated GK-rats (n=6). […]
# Portions of the gastrocnemius skeletal muscle (approximately 30 mg) were crushed in liquid N2 and then lysed in ice-cold buffer (137 mM NaCl, 2.7 mM KCl, 1 mM MgCl2, 0.5 mM Na3VO4, 1% Triton X-100, 10% glycerol, 20 mM Tris pH 8.0, […] leupeptin, 0.2 mM PMSF, 10 mM NaF, 10 μg/ml aprotinin). […] The supernatant was removed and protein concentration was determined. […] Proteins were visualized by ECL and quantified by densitometric scanning.
# total DGK activity [1] = test: Octyl glucoside/PS mixed-micelle assay of total DGK activity in gastrocnemius muscle after phlorizin treatment; type: in vivo; conditions: GK rats, phlorizin 0.8 g/kg body wt per day s.c. for 4 weeks
# Method: as §1, with “diet.” for “diet. Four groups of animals were studied: vehicle-treated Wistar rats (n=5), phlorizin-treated Wistar rats (n=6), vehicle-treated GK-rats (n=6) and phlorizin-treated GK-rats (n=6).”
# Portions of the gastrocnemius skeletal muscle (approximately 30 mg) were crushed in liquid nitrogen, homogenized by sonication in ice-cold buffer containing 20 mM Tris-HCl, pH 7.5, 250 mM sucrose, 1 mM EDTA, 1 mM EGTA, 1 mM dithiothreitol (DTT), 1 mM PMSF, a 20 μg/ml concentration of each: leupeptin, pepstatin, aprotinin, and soybean trypsin inhibitor and centrifuged at 12,000×g for 10 min at 4° C. The supernatant was collected and protein concentration was determined.
# An octyl glucoside/PS mixed-micelle assay of total DGK activity was performed using [γ-^32P] […] The region containing phosphatidic acid was quantified by phosphoimaging and densitometry.
# [2] = diabetic GK rats, treatment with phlorizin; cited from earlier work
# [3] = system: epitrochlearis muscle from Wistar rats; test: 3-O-methyl-glucose transport in isolated epitrochlearis muscle; type: cell-based; conditions: 25 μM inhibitor, Wistar rat epitrochlearis muscle
# Method: The influence of total DGK activity on insulin-stimulated glucose uptake was assessed by measurements on epitrochlearis muscle from Wistar rats using a specific inhibitor for diacylglycerol kinase, DGK inhibitor II™ (Jang, Y. et al. (2000) Biochem. Pharmacol. 59: 763-772).
# Media were prepared from a pre-gassed (95% O2/5% CO2) Krebs Henseleit buffer (KHB) containing 5 mM glucose and 0.1% BSA (RIA grade). Epitrochlearis muscles were incubated (20 min) in a shaking water bath (30° C.) in 2 ml of KHB, supplemented with 20 mM mannitol, with or without 2.4 nM insulin and 25 μM DGK-II inhibitor (Calbiochem). Muscles were transferred to KHB containing 8 mM 3-O-methyl[^3H]glucose (438 μCi/mmol; 1 Ci=[…]) and 12 mM [^14C]mannitol (42 μCi/mmol) and incubated (10 min) with or without insulin and 25 μM of DGKII inhibitor. 3-O-methyl-glucose transport activity was assessed as described (Wallberg-Henriksson et al. (1987) J. Biol. Chem. 262: 7665-7671) and expressed as micromoles per milliliter of intracellular water per hour.
# total DGK activity [4] = test: Reduction of total DGK activity by DGK inhibitor (data not shown); type: biochemical
SMILES,"DGK content in the muscle (DGKδ protein level, immunoblot densitometry) (DGKδ)",total DGK activity in muscle (total DGK activity [1]),blood glucose levels [2],decrease of insulin-stimulated glucose transport ([3]; 2.4 nM insulin),basal glucose transport ([3]; without insulin),reduction of total DGK activity (total DGK activity [4])
"O=C(CCc1ccc(O)cc1)c1c(O)cc(O)cc1O[C@@H]1O[C@H](CO)[C@@H](O)[C@H](O)[C@H]1O [phlorizin, Phlorizin]",increase of DGK content in the muscle to approximately the same values as measured in healthy Wistar rats,increase of total DGK activity in GK rat muscle upon phlorizin treatment to a level measured in muscle from healthy Wistar rats,brings glucose levels back to normal values,–,–,–
O=c1c2ccccc2[nH]c(=S)n1CCN1CCC(=C(c2ccc(F)cc2)c2ccc(F)cc2)CC1 [DGK inhibitor II™],–,–,–,approximately 30%,not affected,70%
